These results are taken from patent US12048678B2, “Compounds for treating myelin related disorders” (Case Western Reserve University, priority 2018, dated 2024).

Assay [1] has as its system EpiSC derived OPCs on microfibers. The experiment in a line: Oligodendrocyte formation and imaging on electrospun microfibers. Type of assay: cell-based, mouse. The settings on record: FIG. 4b. As for the experimental part:
A 12-well plate containing Mimetex aligned scaffold (microfiber plate, AMSBIO, AMS.TECL-006-1X, Electrospun poly-L-lactide Scaffold, […] fibre diameter cell crown inserts) was prepared as previously described. Briefly, fiber inserts were sterilized with 70% ethanol and washed with PBS before being coated with polyornithine and laminin. After laminin coating, 100,000 cells/mL of EpiSC derived OPCs (1.5 mL/well) were plated in differentiation medium. After 24 h the media was replaced with fresh media containing small molecule treatments. Every 48 h the media was replaced with fresh compound containing media for the first 4 days of 14 days culture. Microfibre inserts were fixed with 4% PFA, permeabilized with 0.1% Triton X-100, and blocked with 10% donkey serum (v/v) in PBS for 60 min. Then stained for MBP (Abcam, ab7349; 1:100) and DAPI staining (Sigma; 5 μg/ml). […] The mounted inserts were imaged on the Operetta High Content Imaging and Analysis system (PerkinElmer) and a set of 22 fields captured from each condition resulting in an average of 2000 cells being scored per well. The total microfiber area was calculated using bright filed imaging and a spot finding function (area larger than 2 p×2). The MBP+ pixel area within the defined microfiber area was then defined and the percentage of the total microfiber area calculated.

Assay [2] deals with T1, estrogen receptor (T47D cells) (Homo sapiens, UniProt P03372).
T1 construct: estrogen dependent growth of T47D cells; endogenous in cells; host or cells: T47D
T1 sequence (P03372 1-595): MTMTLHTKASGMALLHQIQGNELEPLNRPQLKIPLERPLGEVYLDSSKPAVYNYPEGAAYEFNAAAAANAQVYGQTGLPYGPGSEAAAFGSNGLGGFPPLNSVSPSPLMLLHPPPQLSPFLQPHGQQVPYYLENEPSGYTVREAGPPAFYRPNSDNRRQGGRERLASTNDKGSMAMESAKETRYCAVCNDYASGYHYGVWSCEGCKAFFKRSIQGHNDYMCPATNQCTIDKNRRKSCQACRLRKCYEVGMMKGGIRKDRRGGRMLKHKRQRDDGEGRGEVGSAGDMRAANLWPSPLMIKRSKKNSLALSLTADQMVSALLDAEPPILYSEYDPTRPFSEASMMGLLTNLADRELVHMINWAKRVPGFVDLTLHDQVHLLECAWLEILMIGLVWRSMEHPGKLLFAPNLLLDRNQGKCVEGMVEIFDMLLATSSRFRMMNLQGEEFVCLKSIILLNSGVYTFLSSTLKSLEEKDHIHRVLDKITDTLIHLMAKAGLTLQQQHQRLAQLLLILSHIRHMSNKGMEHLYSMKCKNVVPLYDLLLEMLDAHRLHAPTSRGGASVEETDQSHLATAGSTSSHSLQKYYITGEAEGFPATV
As to the kind of experiment: Estrogen-dependent cell proliferation assay. The format is cell-based. The settings on record: Compound 1 at 1 μM, TASIN-1 100 nM.
Experimental: Estrogen-dependent cell proliferation was measured as previously described with minor modifications. After growth in estrogen-free media (Phenol red-free RPMI supplemented with 10% charcoal stripped fetal bovine serum) for 5 days, cells were seeded at 2,500 cells/well into 96 well plates. The following day 3× drug containing media was added to triplicate wells and cells were allowed to grow for an additional 5 days at 37° C. in standard a 5% CO2 humidified incubator. Total DNA per well was measured using an adaptation of the method of Labarca and Paigen. At this time media was removed, cells were washed one time with 0.25×PBS and 100 μl of distilled water was added. […] After incubation at room temperature for 2 hours, plates were read in a SpectraMax i3 fluorescent plate reader (Molecular Devices, Sunnyvale, CA) with excitation at 360 nm and emission at 460 nm. All values were converted to microgram DNA per well using a standard curve derived from purified salmon testes DNA.

For assay [3], the system named is cholesterol biosynthesis in OPCs (CYP51, TM7SF2, EBP). As to the kind of experiment: GC/MS-based sterol profiling in OPCs. The format is cell-based, mouse. The settings on record: range of doses, GC-MS sterol profiling, FIG. 3f. As for the experimental part:
EpiSC-derived OPCs were plated at 0.5 million cells per ml in PDL- and laminin-coated six or twelve well plate with differentiation media. After 24 hours, cells were dissociated with Accutase, rinsed with saline, and cell pellets were frozen. For sterol analyses, cells were lysed in methanol (Sigma-Aldrich) with agitation for 30 minutes and cell debris removed by centrifugation at 10,000 rpm for 15 min. Cholesterol-d7 standard (25,26,26,26,27,27,27-^2H7-cholesterol, Cambridge Isotope Laboratories) was added before drying under nitrogen stream and derivatization with 55 μl of bis(trimethylsilyl)trifluoroacetamide/trimethylchlorosilane to form trimethylsilyl derivatives. Following derivatization at 60° C. for 20 minutes, 1 μl was analyzed by gas chromatography/mass spectrometry using an Agilent 5973 Network Mass Selective Detector equipped with a 6890 gas chromatograph system and a HP-5MS capillary column ([…]). Samples were injected in splitless mode and analyzed using electron impact ionization. Ion fragment peaks were integrated to calculate sterol abundance, and quantitation was relative to cholesterol-d7. The following m/z ion fragments were used to quantitate each metabolite: cholesterol-d7 (465), FF-Mas (482), cholesterol (368), zymostenol (458), zymosterol (456), desmosterol (456, 343), 7-dehydrocholesterol (456, 325), lanosterol (393), lathosterol (458), 14-dehydrozymostenol (456). Calibration curves were generated by injecting varying concentrations of sterol standards and maintaining a fixed amount of cholesterol-D7. The human glioma cell line GBM528 was a gift of Jeremy Rich (Cleveland Clinic). Human cortical spheroids were generated as described previously.

Take `c1ccc(-c2ccc(CN3CCCCCCC3)cc2)cc1` [Compound 1]: in assay [1], the “area of microfibers wrapped by MBP+ oligodendrocytes” value is on record as “substantially increased”. In assay [2], the “effect in cell-based assay for the estrogen receptor (estrogen dependent growth of T47D cells)” value was “little affinity”. Besides, in assay [3], the “EBP inhibition in OPCs (zymostenol)” value is reported as “enhanced potency for EBP inhibition”.
